These results are taken from the kinase profiling compilation of Christmann-Franck et al. (2016).

Assay in all cases: radiometric filter-binding kinase assay, Kinaseprofiler
For one experiment, the target named is NTRK1 (human) (UniProt P04629). The settings on record: compound 1.0 µM; ATP 120 µM.
The target of another experiment is PIM1 (human) (UniProt P11309). The settings on record: compound 10.0 µM; ATP 90 µM.
In the next experiment the target is EPHA1 (human) (UniProt P21709). The settings on record: compound 1.0 µM; ATP 45 µM.
For another experiment, the target named is RPS6KA5 KD1 KD2 (human) (UniProt O75582). The settings on record: compound 1.0 µM; ATP 90 µM.
A further experiment has as its target AURKB (human) (UniProt Q96GD4). The settings on record: compound 10.0 µM; ATP 10 µM.
The target of the next experiment is EPHA3 (human) (UniProt P29320). The settings on record: compound 1.0 µM; ATP 120 µM.
The next experiment addresses RPS6KA3 KD1 KD2 (human) (UniProt P51812). The settings on record: compound 1.0 µM; ATP 10 µM.
Experiment [1] has as its target JAK2 JH1 catalytic (human) (UniProt O60674). The settings on record: compound 1.0 µM; ATP 45 µM.
For the next experiment, the target named is PAK4 (human) (UniProt O96013). The settings on record: compound 10.0 µM; ATP 10 µM.
In a further experiment the target is TNK2 (human) (UniProt Q07912). The settings on record: compound 1.0 µM; ATP 70 µM.
A further experiment deals with TAOK1 (human) (UniProt Q7L7X3). The settings on record: compound 1.0 µM; ATP 10 µM.
In the next experiment the target is CAMK2G (human) (UniProt Q13555). The settings on record: compound 10.0 µM; ATP 10 µM.
A further experiment addresses CDC42BPA (human) (UniProt Q5VT25). The settings on record: compound 10.0 µM; ATP 45 µM.
The next experiment concerns the target KDR (human) (UniProt P35968). The settings on record: compound 10.0 µM; ATP 90 µM.
For another experiment, the target named is MARK2 (human) (UniProt Q7KZI7). The settings on record: compound 1.0 µM; ATP 15 µM.
Experiment [2] concerns AXL (human), P30530 [Q764R]. The settings on record: ATP 90 µM.
Experiment [3] has as its system BRSK2 (human), Q8IWQ3 [S251I]. The settings on record: ATP 70 µM.
Experiment [4] relates to IRAK4 (human), Q9NWZ3 [A81V]. The settings on record: ATP 200 µM.
The target of a further experiment is PLK3 (human) (UniProt Q9H4B4). The settings on record: compound 10.0 µM; ATP 70 µM.
The target in a further experiment is SRPK3 (human) (UniProt Q9UPE1). The settings on record: compound 10.0 µM; ATP 15 µM.
Another experiment concerns the target MAPKAPK3 (human) (UniProt Q16644). The settings on record: compound 10.0 µM; ATP 90 µM.
A further experiment has as its target FYN (human) (UniProt P06241). The settings on record: compound 1.0 µM; ATP 70 µM.
Another experiment has as its target MTOR FKBP1A (human) (UniProt P42345+P62942). The settings on record: compound 10.0 µM; ATP 45 µM.
The target in another experiment is PASK (human) (UniProt Q96RG2). The settings on record: compound 10.0 µM; ATP 15 µM.
Experiment [5] concerns the target CSNK2A1 CSNK2B CSNK2A2 (human) (UniProt P19784+P68400+P67870). The settings on record: compound 10.0 µM; ATP 15 µM.
The next experiment concerns the target MAP2K1 (human) (UniProt Q02750). The settings on record: compound 1.0 µM; ATP 10 µM.
In the next experiment the target is IRAK1 (human) (UniProt P51617). The settings on record: compound 10.0 µM; ATP 45 µM.
The target in the next experiment is STK17A (human) (UniProt Q9UEE5). The settings on record: compound 10.0 µM; ATP 10 µM.
Another experiment has as its target FGR (human) (UniProt P09769). The settings on record: compound 1.0 µM; ATP 45 µM.
The target in the next experiment is INSR (human) (UniProt P06213). The settings on record: compound 1.0 µM; ATP 200 µM.
The next experiment has as its target TXK (human) (UniProt P42681). The settings on record: compound 1.0 µM; ATP 200 µM.
Another experiment concerns the target NLK (human) (UniProt Q9UBE8). The settings on record: compound 1.0 µM; ATP 200 µM.
The target in another experiment is MAPK3 (human) (UniProt P27361). The settings on record: compound 1.0 µM; ATP 70 µM.
The next experiment addresses NTRK2 (human) (UniProt Q16620). The settings on record: ATP 90 µM.
For the next experiment, the target named is EPHA8 (human) (UniProt P29322). The settings on record: compound 1.0 µM; ATP 200 µM.
For a further experiment, the target named is WNK2 (human) (UniProt Q9Y3S1). The settings on record: compound 10.0 µM; ATP 200 µM.
In the next experiment the target is SRPK1 (human) (UniProt Q96SB4). The settings on record: compound 10.0 µM; ATP 10 µM.
A further experiment deals with TLK2 (human) (UniProt Q86UE8). The settings on record: ATP 10 µM.
The next experiment concerns the target EPHB1 (human) (UniProt P54762). The settings on record: compound 10.0 µM; ATP 200 µM.
Another experiment deals with FLT3 (human) (UniProt P36888). The settings on record: ATP 200 µM.
For another experiment, the target named is ULK3 (human) (UniProt Q6PHR2). The settings on record: compound 10.0 µM; ATP 10 µM.
Another experiment has as its target RPS6KA4 KD1 KD2 (human) (UniProt O75676). The settings on record: ATP 45 µM.
Another experiment deals with PTK2B (human) (UniProt Q14289). The settings on record: compound 10.0 µM; ATP 90 µM.
For a further experiment, the target named is MELK (human) (UniProt Q14680). The settings on record: compound 1.0 µM; ATP 45 µM.
For another experiment, the target named is PRKACA (human) (UniProt P17612). The settings on record: compound 1.0 µM; ATP 10 µM.
The target of another experiment is FER (human) (UniProt P16591). The settings on record: compound 10.0 µM; ATP 70 µM.
For a further experiment, the target named is SRC (human) (UniProt P12931). The settings on record: compound 10.0 µM; ATP 200 µM.
Another experiment has as its target PRKG1 (human) (UniProt Q13976). The settings on record: compound 1.0 µM; ATP 90 µM.
The target in a further experiment is HIPK3 (human) (UniProt Q9H422). The settings on record: ATP 15 µM.
For a further experiment, the target named is PAK7 (human) (UniProt Q9P286). The settings on record: compound 10.0 µM; ATP 15 µM.
The target of another experiment is CHEK1 (human) (UniProt O14757). The settings on record: compound 10.0 µM; ATP 90 µM.
Another experiment addresses STK4 (human) (UniProt Q13043). The settings on record: compound 1.0 µM; ATP 90 µM.
The target of the next experiment is STK24 (human) (UniProt Q9Y6E0). The settings on record: compound 1.0 µM; ATP 15 µM.
In the next experiment the target is NUAK1 (human) (UniProt O60285). The settings on record: ATP 45 µM.
The target in another experiment is CSNK1G1 (human) (UniProt Q9HCP0). The settings on record: compound 10.0 µM; ATP 15 µM.
In the next experiment the test system is CSNK1D (rat). The settings on record: compound 10.0 µM; accession and sequence are those of the human protein.
The test system of experiment [6] is SGK1 (human), O00141 [S422D]. The settings on record: ATP 90 µM.
Experiment [7] relates to RPS6KB1 (human), P23443 [T412E]. The settings on record: ATP 15 µM.

In general, residual activity refers to the signal under treatment as a percentage of the control signal.

Sequence of BRSK2 (human), Q8IWQ3 [S251I] (Q8IWQ3 whole entry, looked up, stated change not applied): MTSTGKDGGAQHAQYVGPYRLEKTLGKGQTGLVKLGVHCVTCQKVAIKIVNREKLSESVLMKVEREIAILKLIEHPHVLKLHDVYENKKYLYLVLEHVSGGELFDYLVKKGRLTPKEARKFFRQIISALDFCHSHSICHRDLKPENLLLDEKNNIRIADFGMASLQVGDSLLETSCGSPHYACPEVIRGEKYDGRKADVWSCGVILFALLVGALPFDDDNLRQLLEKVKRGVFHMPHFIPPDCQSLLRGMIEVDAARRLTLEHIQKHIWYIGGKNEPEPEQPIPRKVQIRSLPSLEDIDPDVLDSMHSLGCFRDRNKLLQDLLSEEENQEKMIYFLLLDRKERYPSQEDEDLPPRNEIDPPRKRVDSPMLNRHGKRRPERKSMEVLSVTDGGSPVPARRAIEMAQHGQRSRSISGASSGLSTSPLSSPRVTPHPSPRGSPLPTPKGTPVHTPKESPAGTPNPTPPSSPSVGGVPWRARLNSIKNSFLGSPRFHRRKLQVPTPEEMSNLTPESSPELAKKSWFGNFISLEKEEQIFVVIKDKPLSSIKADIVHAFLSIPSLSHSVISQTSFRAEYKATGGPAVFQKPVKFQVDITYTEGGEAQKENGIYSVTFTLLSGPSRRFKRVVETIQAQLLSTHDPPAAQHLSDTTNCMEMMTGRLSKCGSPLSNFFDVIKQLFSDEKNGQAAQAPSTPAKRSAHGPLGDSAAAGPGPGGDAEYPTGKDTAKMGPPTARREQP
Sequence of AXL (human), P30530 [Q764R] (P30530 whole entry Q764R, looked up): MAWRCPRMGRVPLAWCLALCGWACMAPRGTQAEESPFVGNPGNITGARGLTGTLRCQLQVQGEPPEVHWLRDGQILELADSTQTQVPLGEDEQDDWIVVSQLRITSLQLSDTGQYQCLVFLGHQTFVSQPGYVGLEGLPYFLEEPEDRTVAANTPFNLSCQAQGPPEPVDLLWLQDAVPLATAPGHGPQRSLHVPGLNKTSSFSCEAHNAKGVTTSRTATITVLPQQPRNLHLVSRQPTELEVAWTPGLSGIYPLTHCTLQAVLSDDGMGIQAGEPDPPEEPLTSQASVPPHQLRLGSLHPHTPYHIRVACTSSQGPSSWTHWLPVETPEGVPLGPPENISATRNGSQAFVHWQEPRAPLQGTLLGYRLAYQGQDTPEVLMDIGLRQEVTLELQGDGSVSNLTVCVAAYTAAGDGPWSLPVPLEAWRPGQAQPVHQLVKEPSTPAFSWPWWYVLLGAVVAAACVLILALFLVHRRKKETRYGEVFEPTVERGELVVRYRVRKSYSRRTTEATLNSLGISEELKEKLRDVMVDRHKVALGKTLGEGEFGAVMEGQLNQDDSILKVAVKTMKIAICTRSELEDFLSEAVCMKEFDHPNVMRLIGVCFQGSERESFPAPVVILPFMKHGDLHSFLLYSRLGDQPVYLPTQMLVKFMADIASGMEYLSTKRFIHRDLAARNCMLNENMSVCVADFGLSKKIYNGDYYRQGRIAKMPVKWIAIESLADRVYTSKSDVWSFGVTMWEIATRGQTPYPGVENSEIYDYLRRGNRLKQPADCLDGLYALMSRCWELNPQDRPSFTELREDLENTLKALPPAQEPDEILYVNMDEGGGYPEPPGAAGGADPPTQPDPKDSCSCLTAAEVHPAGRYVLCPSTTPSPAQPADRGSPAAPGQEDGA
Sequence of IRAK4 (human), Q9NWZ3 [A81V] (Q9NWZ3 whole entry, looked up, stated change not applied): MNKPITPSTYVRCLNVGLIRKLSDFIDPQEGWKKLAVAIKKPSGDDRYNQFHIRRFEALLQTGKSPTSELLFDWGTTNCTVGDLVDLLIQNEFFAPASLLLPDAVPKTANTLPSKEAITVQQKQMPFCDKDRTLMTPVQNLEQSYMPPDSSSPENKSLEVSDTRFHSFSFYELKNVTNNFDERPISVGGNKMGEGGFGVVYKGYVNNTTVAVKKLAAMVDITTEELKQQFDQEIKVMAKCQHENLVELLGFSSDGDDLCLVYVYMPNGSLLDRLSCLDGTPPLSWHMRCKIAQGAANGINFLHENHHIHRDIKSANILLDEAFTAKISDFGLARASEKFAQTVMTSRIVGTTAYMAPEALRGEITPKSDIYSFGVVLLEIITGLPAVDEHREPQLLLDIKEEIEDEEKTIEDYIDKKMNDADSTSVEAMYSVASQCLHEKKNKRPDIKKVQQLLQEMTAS
Sequence of RPS6KB1 (human), P23443 [T412E] (P23443 whole entry T412E, looked up): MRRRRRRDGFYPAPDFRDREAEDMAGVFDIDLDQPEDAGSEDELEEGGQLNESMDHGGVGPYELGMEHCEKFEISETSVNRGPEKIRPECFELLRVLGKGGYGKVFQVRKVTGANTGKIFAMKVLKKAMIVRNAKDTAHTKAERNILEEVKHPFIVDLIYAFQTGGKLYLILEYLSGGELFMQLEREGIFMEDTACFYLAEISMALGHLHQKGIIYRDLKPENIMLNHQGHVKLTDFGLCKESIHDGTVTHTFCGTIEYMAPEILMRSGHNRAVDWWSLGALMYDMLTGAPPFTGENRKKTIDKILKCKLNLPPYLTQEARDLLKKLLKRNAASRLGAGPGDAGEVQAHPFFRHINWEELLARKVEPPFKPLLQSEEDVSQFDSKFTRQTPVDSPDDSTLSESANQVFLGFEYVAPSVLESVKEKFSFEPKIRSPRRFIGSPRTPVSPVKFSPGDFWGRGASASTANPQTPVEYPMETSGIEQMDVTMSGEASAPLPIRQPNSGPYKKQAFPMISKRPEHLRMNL
Sequence of FLT3 (human) (P36888 whole entry, looked up): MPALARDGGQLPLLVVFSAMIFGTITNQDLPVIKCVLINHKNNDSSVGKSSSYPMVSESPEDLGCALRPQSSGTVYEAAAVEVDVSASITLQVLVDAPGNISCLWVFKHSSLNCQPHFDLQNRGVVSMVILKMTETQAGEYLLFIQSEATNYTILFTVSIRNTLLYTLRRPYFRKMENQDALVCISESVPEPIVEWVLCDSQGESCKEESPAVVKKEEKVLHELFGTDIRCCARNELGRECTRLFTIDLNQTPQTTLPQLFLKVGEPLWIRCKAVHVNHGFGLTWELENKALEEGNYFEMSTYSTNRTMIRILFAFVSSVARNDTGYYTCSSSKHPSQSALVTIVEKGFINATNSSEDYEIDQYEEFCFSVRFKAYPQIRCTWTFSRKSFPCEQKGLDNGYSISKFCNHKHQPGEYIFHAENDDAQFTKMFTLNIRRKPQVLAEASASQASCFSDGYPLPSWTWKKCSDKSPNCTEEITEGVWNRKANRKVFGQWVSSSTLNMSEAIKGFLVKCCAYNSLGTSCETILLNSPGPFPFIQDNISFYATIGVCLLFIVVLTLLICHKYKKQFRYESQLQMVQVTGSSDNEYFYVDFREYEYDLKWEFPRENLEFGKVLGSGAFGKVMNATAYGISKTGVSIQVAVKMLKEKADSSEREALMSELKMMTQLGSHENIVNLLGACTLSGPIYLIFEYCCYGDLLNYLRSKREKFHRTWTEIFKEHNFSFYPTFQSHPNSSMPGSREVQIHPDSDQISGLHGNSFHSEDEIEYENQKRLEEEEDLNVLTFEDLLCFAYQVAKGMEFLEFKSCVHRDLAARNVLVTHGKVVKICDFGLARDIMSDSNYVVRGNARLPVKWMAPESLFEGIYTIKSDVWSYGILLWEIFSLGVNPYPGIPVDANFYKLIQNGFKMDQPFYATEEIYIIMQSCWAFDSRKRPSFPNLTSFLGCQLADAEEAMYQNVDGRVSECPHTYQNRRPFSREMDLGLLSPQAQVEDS
Sequence of SGK1 (human), O00141 [S422D] (O00141 whole entry S422D, looked up): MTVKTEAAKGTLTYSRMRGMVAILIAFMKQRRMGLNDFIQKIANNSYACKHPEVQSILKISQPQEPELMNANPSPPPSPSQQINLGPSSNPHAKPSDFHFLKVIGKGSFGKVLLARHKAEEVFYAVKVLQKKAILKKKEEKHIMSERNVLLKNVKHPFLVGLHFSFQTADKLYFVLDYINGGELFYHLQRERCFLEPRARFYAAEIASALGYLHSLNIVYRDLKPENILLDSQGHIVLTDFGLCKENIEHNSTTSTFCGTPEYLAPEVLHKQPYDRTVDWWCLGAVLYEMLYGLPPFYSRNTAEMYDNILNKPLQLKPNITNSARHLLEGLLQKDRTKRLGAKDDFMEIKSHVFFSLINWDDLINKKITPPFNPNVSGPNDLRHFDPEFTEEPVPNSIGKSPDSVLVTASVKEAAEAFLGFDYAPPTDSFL
Sequence of NUAK1 (human) (O60285 whole entry, looked up): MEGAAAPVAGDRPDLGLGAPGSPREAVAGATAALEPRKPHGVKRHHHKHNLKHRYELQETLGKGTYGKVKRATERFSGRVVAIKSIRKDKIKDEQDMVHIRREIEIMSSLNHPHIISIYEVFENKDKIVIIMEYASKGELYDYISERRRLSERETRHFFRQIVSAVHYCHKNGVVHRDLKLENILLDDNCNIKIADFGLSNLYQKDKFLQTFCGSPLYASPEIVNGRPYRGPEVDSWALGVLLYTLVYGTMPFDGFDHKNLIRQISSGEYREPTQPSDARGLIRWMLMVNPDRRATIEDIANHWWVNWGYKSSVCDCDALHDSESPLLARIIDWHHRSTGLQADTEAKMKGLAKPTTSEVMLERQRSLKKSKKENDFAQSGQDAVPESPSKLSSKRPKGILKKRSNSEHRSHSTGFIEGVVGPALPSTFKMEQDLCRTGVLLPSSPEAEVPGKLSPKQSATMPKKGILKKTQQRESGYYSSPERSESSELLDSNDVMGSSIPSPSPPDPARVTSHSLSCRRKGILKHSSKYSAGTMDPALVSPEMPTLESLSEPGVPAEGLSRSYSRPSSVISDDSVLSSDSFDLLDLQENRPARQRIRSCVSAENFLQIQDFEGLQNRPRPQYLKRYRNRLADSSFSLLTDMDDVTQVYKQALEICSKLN
Sequence of AURKB (human) (Q96GD4 whole entry, looked up): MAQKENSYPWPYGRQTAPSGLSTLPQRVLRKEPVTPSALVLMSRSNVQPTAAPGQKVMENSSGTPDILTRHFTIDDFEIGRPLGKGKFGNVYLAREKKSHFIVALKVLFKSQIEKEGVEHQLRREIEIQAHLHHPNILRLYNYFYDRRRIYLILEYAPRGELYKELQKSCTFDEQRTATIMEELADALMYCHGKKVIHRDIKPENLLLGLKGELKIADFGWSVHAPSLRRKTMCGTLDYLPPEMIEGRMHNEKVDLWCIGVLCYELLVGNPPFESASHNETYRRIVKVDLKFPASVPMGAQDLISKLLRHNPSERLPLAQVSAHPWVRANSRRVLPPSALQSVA

In the case of `O=C(Nc1cccc(Nc2nccc(Nc3cccc(C(F)(F)F)c3)n2)c1)C1CC1`, the residual activity at NTRK1 (human) is 21%; on PIM1 (human) it was 28%; on EPHA1 (human), 24%; on RPS6KA5 KD1 KD2 (human), 100%; at AURKB (human), -1%; on EPHA3 (human) it was 100%. Besides, the residual activity at RPS6KA3 KD1 KD2 (human) was 17%; in experiment [1], 17%; at PAK4 (human), 28%; on TNK2 (human), 24%; at TAOK1 (human) it was 100%; at CAMK2G (human), 21%. In addition, the residual activity on CDC42BPA (human) is 147%; on KDR (human), 24%; on MARK2 (human) it was 100%.
Turning to `COC(=O)[C@]1(O)C[C@@H]2O[C@@]1(C)n1c3ccccc3c3c4c(c5c6ccccc6n2c5c31)C(=O)NC4`, the residual activity is -3% in [2] (compound 10.0 µM), 0% in experiment [3] (compound 10.0 µM), -2% in experiment [4] (compound 1.0 µM) and 0% in [4] (compound 10.0 µM).
For the molecule `CN[C@@H]1C[C@H]2O[C@@](C)([C@@H]1OC)n1c3ccccc3c3c4c(c5c6ccccc6n2c5c31)C(=O)NC4`, the residual activity at PLK3 (human) was 43%; on SRPK3 (human), 51%; at MAPKAPK3 (human), 43%; on FYN (human), 0%; on MTOR FKBP1A (human) it was 78%; at PASK (human), 0%. The residual activity came out at 95% in experiment [5]; 0% on MAP2K1 (human); 0% on IRAK1 (human); 0% at STK17A (human); 0% at FGR (human); 26% on INSR (human). Further, the residual activity on TXK (human) was determined as 24%; at NLK (human), 26%; at MAPK3 (human), 62%; at NTRK2 (human) (compound 1.0 µM), 0%; at NTRK2 (human) (compound 10.0 µM), 0%; at EPHA8 (human) it was 26%. Further, the residual activity at WNK2 (human) was 37%; on SRPK1 (human), -4%; at TLK2 (human) (compound 1.0 µM), 0%; at TLK2 (human) (compound 10.0 µM), 0%; at EPHB1 (human), 0%; on FLT3 (human) (compound 1.0 µM), 0%. The residual activity on FLT3 (human) (compound 10.0 µM), at ULK3 (human), on RPS6KA4 KD1 KD2 (human) (compound 1.0 µM), at RPS6KA4 KD1 KD2 (human) (compound 10.0 µM), on PTK2B (human) and at MELK (human) was 0% in each case. Also, the residual activity amounted to 0% at PRKACA (human); 0% on FER (human); 0% on SRC (human); 0% at PRKG1 (human); 0% in experiment [3] (compound 10.0 µM); 82% on HIPK3 (human) (compound 1.0 µM). In addition, the residual activity at HIPK3 (human) (compound 10.0 µM) is 34%; at PAK7 (human), 0%; in experiment [4] (compound 10.0 µM), 0%; at CHEK1 (human) it was 0%; on STK4 (human), 0%; on STK24 (human), 0%. Besides, the residual activity turned out to be 0% on NUAK1 (human) (compound 1.0 µM), 0% at NUAK1 (human) (compound 10.0 µM), 54% at CSNK1G1 (human) and 52% in the experiment on CSNK1D (rat).
`O=C1c2ccccc2-c2n[nH]c3cccc1c23`: the residual activity in experiment [6] (compound 1.0 µM) was determined as 60%; in experiment [6] (compound 10.0 µM) it was 24%; in experiment [2] (compound 1.0 µM) it was 50%; in [2] (compound 10.0 µM) it was 17%; in experiment [3] (compound 1.0 µM), 64%; in [3] (compound 10.0 µM), 9%. Also, the residual activity is 55% in experiment [7] (compound 1.0 µM), 14% in experiment [7] (compound 10.0 µM), 36% in experiment [4] (compound 1.0 µM) and 11% in experiment [4] (compound 10.0 µM).
